# Laboratory results as given in US10647680B2, “Urea compound, preparation method therefor and medical use thereof” (Ancureall Pharmaceutical (Shanghai) Co., Ltd., priority 2016, dated 2020).
# Tests used:
# [1] = test system: Kasumi-1 (c-Kit N822K mutant type); test: In vitro growth inhibition (GI50), Kasumi-1; assay type: cell-based; details: Homo sapiens, Cell lines of leukemia, read-out: GI 50 Kasumi-1 Kit (N822K)
# Method in brief: (§1)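 Cells in RPMI1640 with 10% FBS, seeded at 5–10×10^4 cells/mL, exposed next day to compound at 5,000 nM down to 0.01 nM (2- or 10-fold dilutions, ≤1% solvent) for 3–5 days at 37 °C. CCK8 absorbance at 450 nm, growth rate relative to pre-treatment and solvent controls, GI50 from concentration–growth curve.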
# U937 (FLT3 wild-type) = test: In vitro growth inhibition (GI50), U937; assay type: cell-based; details: Homo sapiens, U-937; Cell lines of leukemia; read-out: GI 50 U937 FLT 3(WT)
# [2] = test system: OCI-AML3 (NPMc+ mutant type); test: In vitro growth inhibition (GI50), OCI-AML3; assay type: cell-based; details: Homo sapiens, OCI-AML-3; Cell lines of leukemia; read-out: GI 50 OCI- AML3 NPMc+
# [3] = test system: MOLM-13 (FLT3 ITD+/− mutant type); test: In vitro growth inhibition (GI50), MOLM-13; assay type: cell-based, human; details: Homo sapiens, MOLM-13; Cell lines of leukemia; read-out: GI 50 MOLM-13 FLT3 (ITD+/−)
# RS4; 11 (FLT3 wild type) = test: In vitro growth inhibition (GI50), RS4; 11; assay type: cell-based, human; details: Homo sapiens, RS4-11; Cell lines of leukemia; read-out: GI 50 RS4: 11 FLT3 (WT)
# HL-60 (FLT3 wild type) = test: In vitro growth inhibition (GI50), HL-60; assay type: cell-based; details: Homo sapiens, Cell lines of leukemia, read-out: GI 50 HL60 FLT3 (WT)
# Method in brief: as §1
# [4] = test system: MV4-11 (FLT3 ITD+/+ mutant type); test: In vitro growth inhibition (GI50), MV4-11; assay type: cell-based, human; details: Homo sapiens, MV4-11; Cell lines of leukemia; read-out: GI 50 MV4-11 FLT3 (ITD +/+)
# [5] = test system: K562 (FLT3 negative expression, positive expression of BCR-ABL fusion protein); test: In vitro growth inhibition (GI50), K562; assay type: cell-based; details: Homo sapiens, Cell lines of leukemia, read-out: GI 50 K562 BCR-ABL
# [6] = test system: KG-1 (expressing FGFR1OP2-FGFR1 fusion protein); test: In vitro growth inhibition (GI50), KG-1; assay type: cell-based; details: Homo sapiens; Cell lines of leukemia; read-out: GI 50 KG-1 FGFR1OP 2-FGFR1
# [7] = test system: RAMOS (positive expression of Brutons tyrosine protein kinase); test: In vitro growth inhibition (GI50), RAMOS; assay type: cell-based; details: Homo sapiens, Cell lines of leukemia, read-out: GI 50 Ramos BTK
Compound,GI50 [1] [nM],GI50 (U937 (FLT3 wild-type)) [nM],GI50 [2] [nM],GI50 [3] [nM],GI50 (RS4; 11 (FLT3 wild type)) [nM],GI50 (HL-60 (FLT3 wild type)) [nM],GI50 [4] [nM],GI50 [5] [nM],GI50 [6] [nM],GI50 [7] [nM]
"CCOc1ccc2c(c1)ncn2-c1ccc(NC(=O)Nc2cc(C(C)(C)C)n[nH]2)cc1 [Compound 72, 1-(5-tert-butyl-2H-pyrazol-3-yl)-3-[4-(5-ethoxyl-benzimidazol-1-yl)-phenyl]-urea]",> 1000,> 1000,> 1000,0.1 to 1,> 1000,> 1000,0.1 to 1,> 1000,> 1000,> 1000
"CCCCCCOc1ccc2c(c1)ncn2-c1ccc(NC(=O)Nc2cc(C(C)(C)C)n[nH]2)cc1 [Compound 73, 1-(5-tert-butyl-2H-pyrazol-3-yl)-3-[4-(5-hexyloxyl-benzimidazol-1-yl)-phenyl]-urea]",> 1000,> 1000,> 1000,0.1 to 1,> 1000,> 1000,0.1 to 1,> 1000,> 1000,> 1000
"CC(C)Oc1ccc2c(c1)ncn2-c1ccc(NC(=O)Nc2cc(C(C)(C)C)n[nH]2)cc1 [Compound 74, 1-(5-tert-butyl-2H-pyrazol-3-yl)-3-[4-(5-isopropoxy-benzimidazol-1-yl)-phenyl]-urea]",> 1000,> 1000,> 1000,0.1 to 1,> 1000,> 1000,0.1 to 1,> 1000,> 1000,> 1000
"CCC(C)Oc1ccc2c(c1)ncn2-c1ccc(NC(=O)Nc2cc(C(C)(C)C)n[nH]2)cc1 (stereo not shown) [Compound 75, 1-[4-(5-sec-butoxy-benzimidazol-1-yl)-phenyl]-3-(5-tert-butyl-2H-pyrazol-3-yl)-urea]",> 1000,> 1000,> 1000,0.1 to 1,> 1000,> 1000,0.1 to 1,> 1000,> 1000,> 1000
"CC(C)COc1ccc2c(c1)ncn2-c1ccc(NC(=O)Nc2cc(C(C)(C)C)n[nH]2)cc1 [Compound 76, 1-(5-tert-butyl-2H-pyrazol-3-yl)-3-[4-(5-isobutoxy-benzimidazol-1-yl)-phenyl]-urea]",> 1000,> 1000,> 1000,1 to 10,> 1000,> 1000,1 to 10,> 1000,> 1000,> 1000
"CCOCCOc1ccc2c(c1)ncn2-c1ccc(NC(=O)Nc2cc(C(C)(C)C)n[nH]2)cc1 [Compound 78, 1-(5-tert-butyl-2H-pyrazol-3-yl)-3-{4-[5-(2-ethoxyl-ethoxyl)-benzimidazol-1-yl]-phenyl}-urea]",> 1000,> 1000,> 1000,0.1 to 1,> 1000,> 1000,0.1 to 1,> 1000,> 1000,> 1000
"COCC(O)COc1ccc2c(c1)ncn2-c1ccc(NC(=O)Nc2cc(C(C)(C)C)n[nH]2)cc1 (stereo not shown) [Compound 80, 1-(5-tert-butyl-2H-pyrazol-3-yl)-3-{4-[5-(2-hydroxy-3-methoxyl-propoxyl)-benzimidazol-1-yl]-phenyl}-urea]",> 1000,> 1000,> 1000,0.1 to 1,> 1000,> 1000,0.1 to 1,> 1000,> 1000,> 1000
"CCCCN(CCCC)CCCOc1ccc2c(c1)ncn2-c1ccc(NC(=O)Nc2cc(C(C)(C)C)n[nH]2)cc1 [Compound 82, 1-(5-tert-butyl-2H-pyrazol-3-yl)-3-{4-[5-(3-dibutylaminopropoxy)-benzimidazol-1-yl]-phenyl}-urea]",> 1000,100 to 1000,> 1000,0.1 to 1,> 1000,100 to 1000,0.1 to 1,> 1000,> 1000,100 to 1000
"CC(C)(C)c1cc(NC(=O)Nc2ccc(-n3cnc4cc(OCC#N)ccc43)cc2)[nH]n1 [Compound 83, 1-(5-tert-butyl-2H-pyrazol-3-yl)-3-[4-(5-cyanomethoxy-benzimidazol-1-yl)-phenyl]-urea]",> 1000,> 1000,> 1000,0.1 to 1,> 1000,> 1000,0.1 to 1,> 1000,> 1000,> 1000
"CC(C)(C)c1cc(NC(=O)Nc2ccc(-n3cnc4cc(OC(F)(F)F)ccc43)cc2)[nH]n1 [Compound 84, 1-(5-tert-butyl-2H-pyrazol-3-yl)-3-[4-(5-trifluoromethoxy-benzimidazol-1-yl)-phenyl]-urea]",> 1000,> 1000,> 1000,0.1 to 1,> 1000,> 1000,0.1 to 1,> 1000,> 1000,> 1000
"CC1(COc2ccc3c(c2)ncn3-c2ccc(NC(=O)Nc3cc(C(C)(C)C)n[nH]3)cc2)COC1 [Compound 85, 1-(5-tert-butyl-2H-pyrazol-3-yl)-3-{4-[5-(3-methyl-oxetane-3-ylmethoxy)-benzimidazol-1-yl]-phenyl]urea]",> 1000,> 1000,> 1000,0.1 to 1,> 1000,> 1000,0.1 to 1,> 1000,> 1000,> 1000
"CC(C)(C)c1cc(NC(=O)Nc2ccc(-n3cnc4cc(OCC5CCCO5)ccc43)cc2)[nH]n1 (stereo not shown) [Compound 86, 1-(5-tert-butyl-2H-pyrazol-3-yl)-3-{4-[5-(tetrahydrofuran-2-ylmethoxy)-benzimidazol-1-yl]-phenyl}-urea]",> 1000,> 1000,> 1000,0.1 to 1,> 1000,100 to 1000,0.1 to 1,> 1000,> 1000,> 1000
"CC(C)(C)c1cc(NC(=O)Nc2ccc(-n3cnc4cc(OCC5CCCCO5)ccc43)cc2)[nH]n1 (stereo not shown) [Compound 87, 1-(5-tert-butyl-2H-pyrazol-3-yl)-3-{4-[5-(tetrahydro-pyran-2-ylmethoxy)-benzimidazol-1-yl]-phenyl}-urea]",> 1000,> 1000,> 1000,0.1 to 1,> 1000,> 1000,0.1 to 1,> 1000,> 1000,> 1000
"CCOC(=O)COc1ccc2c(c1)ncn2-c1ccc(NC(=O)Nc2cc(C(C)(C)C)n[nH]2)cc1 [Compound 88, ethyl (1-{4-[3-(5-tert-butyl-2H-pyrazol-3-yl)-carbamido]-phenyl}-H-benzimidazol-5-yloxy)-acetate]",> 1000,> 1000,> 1000,1 to 10,> 1000,> 1000,1 to 10,> 1000,> 1000,> 1000
"CC(C)(C)c1cc(NC(=O)Nc2ccc(-n3cnc4cc(OCCN5CCCCC5)ccc43)cc2)[nH]n1 [Compound 90, 1-(5-tert-butyl-2H-pyrazol-3-yl)-3-{4-[5-(2-piperidin-1-yl-ethoxyl)-benzimidazol-1-yl]-phenyl}-urea]",> 1000,> 1000,> 1000,0.1 to 1,> 1000,> 1000,0.1 to 1,> 1000,> 1000,> 1000
"CC(C)(C)c1cc(NC(=O)Nc2ccc(-n3cnc4cc(OCCN5CCCCCC5)ccc43)cc2)[nH]n1 [Compound 91, 1-{4-[5-(2-azepan-1-yl-ethoxy)-benzimidazol-1-yl]-phenyl}-3-(5-tert-butyl-2H-pyrazol-3-yl)-urea]",> 1000,> 1000,> 1000,0.1 to 1,> 1000,> 1000,0.1 to 1,> 1000,> 1000,> 1000
